Assay results: patent publication US12433882B2, “Treatments for amyotrophic lateral sclerosis using dazucorilant” (Corcept Therapeutics Incorporated, priority 2022, dated 2025)

What was measured:
[1] = test system: Wobbler mouse; assay: Wobbler mouse model of ALS; format: in vivo; details: administration for 21 days
[2] = test system: GR; assay: Dexamethasone-induced TAT activity in primary hepatocytes from monkeys; format: cell-based
Experimental: (§1) Dazucorilant is selective for GR over other nuclear hormone receptors, and a range of other receptors, enzymes, and ion channels. For example, dazucorilant has high selectivity for GR relative to the progesterone receptor (PR), androgen receptor, and estrogen receptor, showing no significant binding to these receptors at a concentration of 10 μM (0%, 1.5% and […], respectively).

[3] = biological target: T1, GR (Homo sapiens, UniProt P04150); assay: Dexamethasone-induced TAT activity in primary hepatocytes from humans; format: cell-based; parameters: endogenous in cells; host or cells: primary hepatocytes from humans
T1 sequence (P04150 1-777): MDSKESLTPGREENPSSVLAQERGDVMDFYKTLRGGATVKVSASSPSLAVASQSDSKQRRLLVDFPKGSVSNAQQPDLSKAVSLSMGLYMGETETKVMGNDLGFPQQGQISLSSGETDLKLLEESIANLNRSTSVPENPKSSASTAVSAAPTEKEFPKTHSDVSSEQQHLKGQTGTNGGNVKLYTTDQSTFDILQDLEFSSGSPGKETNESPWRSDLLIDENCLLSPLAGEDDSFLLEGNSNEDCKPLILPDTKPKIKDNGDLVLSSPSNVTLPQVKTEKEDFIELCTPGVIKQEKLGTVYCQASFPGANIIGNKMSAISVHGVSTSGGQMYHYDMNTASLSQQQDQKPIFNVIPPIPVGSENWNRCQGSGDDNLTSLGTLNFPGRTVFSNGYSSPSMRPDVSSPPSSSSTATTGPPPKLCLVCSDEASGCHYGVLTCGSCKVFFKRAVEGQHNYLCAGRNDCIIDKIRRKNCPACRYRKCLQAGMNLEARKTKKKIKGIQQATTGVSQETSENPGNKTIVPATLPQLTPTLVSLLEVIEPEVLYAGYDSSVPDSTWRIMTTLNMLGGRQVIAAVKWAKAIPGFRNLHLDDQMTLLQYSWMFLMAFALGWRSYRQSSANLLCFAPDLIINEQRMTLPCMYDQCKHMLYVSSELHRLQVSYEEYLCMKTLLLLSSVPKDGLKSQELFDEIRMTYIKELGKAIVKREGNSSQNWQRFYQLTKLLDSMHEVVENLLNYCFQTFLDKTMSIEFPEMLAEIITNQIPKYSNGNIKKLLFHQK
Experimental: as §1

[4] = biological target: T2, androgen receptor (Homo sapiens, UniProt P10275); assay: Androgen receptor binding; details: 10 μM
T2 sequence (P10275 1-920): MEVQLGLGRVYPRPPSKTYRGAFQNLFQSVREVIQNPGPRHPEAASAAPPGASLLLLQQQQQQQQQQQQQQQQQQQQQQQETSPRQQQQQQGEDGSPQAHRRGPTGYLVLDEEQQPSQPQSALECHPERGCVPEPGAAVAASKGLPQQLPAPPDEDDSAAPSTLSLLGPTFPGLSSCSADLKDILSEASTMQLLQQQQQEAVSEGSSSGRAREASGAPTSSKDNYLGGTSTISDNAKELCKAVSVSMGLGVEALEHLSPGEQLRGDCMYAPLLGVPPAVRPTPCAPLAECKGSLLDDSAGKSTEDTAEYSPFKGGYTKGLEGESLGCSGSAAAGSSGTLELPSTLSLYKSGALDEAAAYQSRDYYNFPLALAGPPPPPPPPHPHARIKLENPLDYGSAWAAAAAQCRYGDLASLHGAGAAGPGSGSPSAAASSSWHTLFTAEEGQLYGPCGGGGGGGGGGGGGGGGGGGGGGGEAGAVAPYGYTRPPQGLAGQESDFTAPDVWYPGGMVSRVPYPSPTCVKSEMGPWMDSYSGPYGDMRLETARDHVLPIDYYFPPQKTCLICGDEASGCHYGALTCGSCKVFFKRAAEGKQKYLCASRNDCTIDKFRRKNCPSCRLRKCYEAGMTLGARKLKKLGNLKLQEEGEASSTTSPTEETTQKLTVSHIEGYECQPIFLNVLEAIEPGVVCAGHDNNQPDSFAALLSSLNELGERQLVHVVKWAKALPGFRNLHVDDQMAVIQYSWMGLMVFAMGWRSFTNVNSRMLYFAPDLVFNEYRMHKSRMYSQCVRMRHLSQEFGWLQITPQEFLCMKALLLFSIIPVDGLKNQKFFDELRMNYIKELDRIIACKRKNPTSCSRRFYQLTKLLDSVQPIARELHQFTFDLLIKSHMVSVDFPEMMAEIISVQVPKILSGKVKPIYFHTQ

[5] = test system: cortisol or ACTH levels; assay: First In Human study Part 2, multiple doses: cortisol and ACTH levels; format: in vivo; details: part 2 of the FIH study
Experimental: (§2) An adaptive dose, double-blind, placebo-controlled study (NCT04249323, EudraCT 2019-004258-27) was conducted in 110 healthy male and female volunteers (18-60 years old; BMI 18-30 kg/m2; weight≤102 kg; “First In Human” (FIH) study).

[6] = First In Human study Part 1, single ascending dose PK with or without food; details: for AUC(0-inf)/D (adjusted geometric mean) / AUC(0-last)/D (adjusted geometric mean) / Cmax/D (adjusted geometric mean): single dose
Experimental: as §2
ANOVA model of natural log-transformed PK parameters from part 1 of the FIH study, including a term for treatment fitted as fixed effect. PK parameters normalized to the equivalent of a 1-mg dose. AUC, area under the curve; CI, confidence interval; Cmax, maximum concentration; D, dose.
ANOVA model of natural log-transformed PK parameters from part 1 of the FIH study, including a term for treatment fitted as fixed effect. CI, confidence interval; Cmax, maximum concentration; AUC, area under the curve.

[7] = Safety and tolerability in healthy volunteers; format: in vivo
Experimental: as §2

[8] = test system: effect of prednisone on eosinophils, lymphocytes, neutrophils, osteocalcin; assay: First In Human study Part 3, proof of pharmacological effect (prednisone challenge); format: in vivo; details: prednisone+dazucorilant vs. prednisone alone
From the text: Linear mixed model of PD parameter estimates from part 3 of the FIE study, including terms for treatment fitted as a fixed effect, subject fitted as a random effect, and baseline concentration values fitted as a covariate. AUEC, area under the effect curve; cfb, change from baseline; CI, confidence interval; Emax, maximum change; ns, not significant.

[9] = 2-fold dose escalation, 450 mg to 900 mg fed
[10] = 3-fold dose escalation, 150 mg to 450 mg fasted

O=C(c1ccccn1)[C@]12Cc3cnn(-c4ccc(F)cc4)c3C=C1CCN(S(=O)(=O)c1ccc(C(F)(F)F)cc1)C2 [dazucorilant, (R)-(1-(4-fluorophenyl)-6-((4-(trifluoromethyl)phenyl)sulfonyl)-4,4a, 5,6,7,8-hexahydro-1-H-pyrazolo[3,4-g]isoquinolin-4a-yl) (pyridin-2-yl)methanone]
forepaw atrophy [1]: reducing forepaw atrophy | neurodegeneration and inflammation [1]: inhibiting neurodegeneration and inflammation | performance in the rotarod test [1]: overcoming the impaired performance in the rotarod test | dexamethasone-induced increase in TAT activity [2]: prevented the dexamethasone-induced increase in TAT activity | dexamethasone-induced increase in TAT activity [3]: prevented the dexamethasone-induced increase in TAT activity | binding to androgen receptor [4]: 1.5% | effects on morning or evening cortisol or ACTH levels [5]: no notable effects | AUC(0-inf)/D (adjusted geometric mean) ([6]; 150 mg FASTED): 2.18 ng·h/mL/mg | AUC(0-last)/D (adjusted geometric mean) ([6]; 150 mg FASTED): 1.69 ng·h/mL/mg | Cmax/D (adjusted geometric mean) ([6]; 150 mg FASTED): 0.494 ng/mL/mg | exposure in fed vs fasted subjects ([6]; 300 mg with and without food, FIG. 1A/1B): Greater dazucorilant exposure was observed when dazucorilant was administered to fed subjects | AUC(0-inf) Ratio Fed:Fasted ([6]; 450 mg): 250.7% | AUC(0-last) Ratio Fed:Fasted ([6]; 450 mg): 250.7% | Cmax Ratio Fed:Fasted ([6]; 450 mg): 202.3% | AUC(0-inf) (adjusted geometric mean) ([6]; 450 mg FASTED): 1290 ng·h/mL | AUC(0-last) (adjusted geometric mean) ([6]; 450 mg FASTED): 1180 ng·h/mL | Cmax (adjusted geometric mean) ([6]; 450 mg FASTED): 251 ng/mL | AUC(0-inf)/D (adjusted geometric mean) ([6]; 450 mg FASTED): 2.86 ng·h/mL/mg | AUC(0-last)/D (adjusted geometric mean) ([6]; 450 mg FASTED): 2.62 ng·h/mL/mg | Cmax/D (adjusted geometric mean) ([6]; 450 mg FASTED): 0.557 ng/mL/mg | AUC(0-inf) (adjusted geometric mean) ([6]; 450 mg FED): 3220 ng·h/mL | AUC(0-last) (adjusted geometric mean) ([6]; 450 mg FED): 2950 ng·h/mL | Cmax (adjusted geometric mean) ([6]; 450 mg FED): 508 ng/mL | AUC(0-inf)/D (adjusted geometric mean) ([6]; 450 mg FED): 7.17 ng·h/mL/mg | AUC(0-last)/D (adjusted geometric mean) ([6]; 450 mg FED): 6.56 ng·h/mL/mg | Cmax/D (adjusted geometric mean) ([6]; 450 mg FED): 1.13 ng/mL/mg | AUC(0-inf)/D Ratio High:Low Dose ([6]; 450 mg vs 150 mg FASTED): 131.3% | AUC(0-last)/D Ratio High:Low Dose ([6]; 450 mg vs 150 mg FASTED): 155.2% | Cmax/D Ratio High:Low Dose ([6]; 450 mg vs 150 mg FASTED): 112.9% | AUC(0-inf)/D (adjusted geometric mean) ([6]; 900 mg FED): 10.2 ng·h/mL/mg | AUC(0-last)/D (adjusted geometric mean) ([6]; 900 mg FED): 8.33 ng·h/mL/mg | Cmax/D (adjusted geometric mean) ([6]; 900 mg FED): 1.23 ng/mL/mg | AUC(0-inf)/D Ratio High:Low Dose ([6]; 900 mg vs 450 mg FED): 42.3% | AUC(0-last)/D Ratio High:Low Dose ([6]; 900 mg vs 450 mg FED): 127.0% | Cmax/D Ratio High:Low Dose ([6]; 900 mg vs 450 mg FED): 109.2% | increase in AUC(0-inf) on dose escalation [6, 9]: 2.8 fold | increase in Cmax on dose escalation [6, 9]: 2.2 fold | increase in AUC(0-inf) on dose escalation [6, 10]: 4.0 fold | increase in Cmax on dose escalation [6, 10]: 3.4 fold | food effect, increase in exposure ([6]; high-fat breakfast vs fasting (Table 2, 450 mg)): > 2 fold | single doses considered safe and well tolerated ([7]; both, human, in vivo): up to 1000 mg | serious or severe treatment-emergent adverse events ([7]; healthy volunteers): No serious or severe treatment-emergent adverse events were reported | most common adverse events ([7]; human, in vivo): gastrointestinal, nervous system, musculoskeletal, and connective tissue disorders | safety concerns ([7]; human, in vivo): no significant safety concerns were identified | severity of adverse events ([7]; human, in vivo): mild to moderate | multiple doses considered safe ([7]; multiple doses QD): up to 300 mg QD | multiple doses safe and generally well tolerated ([7]; multiple doses QD): up to 200 mg QD | effect of dazucorilant on prednisone-induced changes in eosinophils, lymphocytes, osteocalcin, neutrophils [8]: ameliorated the effect of prednisone on these parameters
